Tested on: advanced solid tumors
Assay: Tumor response per RECIST v1.1
Assay type: in vivo, human
[1] = 40 mg BID (N=3) + pembrolizumab
[2] = 60 mg BID (N=3) + pembrolizumab
[3] = 80 mg BID (N=6) + pembrolizumab
[4] = 80 mg BID group + pembrolizumab
[5] = 100 mg BID (N=7) + pembrolizumab

Description: Secondary endpoints included PK parameters (e.g., maximum observed concentration [C max] and area under the concentration‐time curve [AUC]). Secondary endpoints included objective response rate (ORR), disease control rate (DCR), and duration of response (DOR) as assessed by investigator per RECIST v1.1. Tumor responses were assessed according to RECIST v1.1; computerized tomography scanning or magnetic resonance imaging was performed every 6 weeks in the first 48 weeks, and every 12 weeks thereafter. Secondary endpoints also included safety and tolerability (adverse events [AEs] as defined by the National Cancer Institute‐Common Terminology Criteria for Adverse Events CTCAE v5.0) and exploratory biomarkers (total bile acids, 7‐α‐hydroxy‐4‐cholesten‐3‐one [C4] and circulating FGF19). Safety follow‐up visit was performed within 30 days (±5 days) and 90 days (±7 days) after the last dose of the study treatment.
All patients who received at least one dose of the study treatment in the Phase 1 part of the study were included in the safety and efficacy analyses. Dose escalation and MTD assessment were primarily based on DLTs which occurred within the 28‐day observation period. Descriptive statistics were used for demographics, safety, and efficacy data. The number of patients who experienced DLTs (within and outside of the 28‐day DLT assessment period) was tabulated for each dose level. The sample size of patients required for dose escalation were determined based on the ‘3+3’ design and DLTs observed as the trial progressed.

COCCNc1cc(NC(=O)N2CCCc3cc(CN4CCN(C)CC4=O)c(C=O)nc32)ncc1C#N [EVER4010001, roblitinib]
Best overall response: Complete response [1]: 0 n (%) | Best overall response: Not evaluable [1]: 0 n (%) | Best overall response: Partial response [1]: 0 n (%) | Best overall response: Progressive disease [1]: 1 (33.3) n (%) | Best overall response: Stable disease [1]: 2 (66.7) n (%) | Disease control rate (CR+PR+SD) [1]: 2 (66.7) n (%) | Objective response (CR+PR) [1]: 0 n (%) | DCR (40 mg BID group + pembrolizumab): 66.7% | Best overall response: Complete response [2]: 0 n (%) | Best overall response: Not evaluable [2]: 0 n (%) | Best overall response: Partial response [2]: 0 n (%) | Best overall response: Progressive disease [2]: 2 (66.7) n (%) | Best overall response: Stable disease [2]: 1 (33.3) n (%) | Disease control rate (CR+PR+SD) [2]: 1 (33.3) n (%) | Objective response (CR+PR) [2]: 0 n (%) | DCR (60 mg BID group + pembrolizumab): 33.3% | Best overall response: Complete response [3]: 0 n (%) | Best overall response: Not evaluable [3]: 1 (16.7) n (%) | Best overall response: Partial response [3]: 1 (16.7) n (%) | Best overall response: Progressive disease [3]: 2 (33.3) n (%) | Best overall response: Stable disease [3]: 2 (33.3) n (%) | Disease control rate (CR+PR+SD) [3]: 3 (50.0) n (%) | Objective response (CR+PR) [3]: 1 (16.7) n (%) | DCR [4]: 50% | ORR [4]: 16.7% | Best overall response: Complete response [5]: 0 n (%) | Best overall response: Not evaluable [5]: 1 (14.3) n (%) | Best overall response: Partial response [5]: 0 n (%) | Best overall response: Stable disease [5]: 0 n (%) | Disease control rate (CR+PR+SD) [5]: 0 n (%) | Objective response (CR+PR) [5]: 0 n (%) | DCR (100 mg BID group + pembrolizumab): 0% | ORR (across all doses, + pembrolizumab): 5.3%

Source: publication PMC10134273 (Cancer Medicine, 2023)
